Data: PMC8954547, “Nonpeptidic Z360-Analogs Tagged with Trivalent Radiometals as Anti-CCK2R Cancer Theranostic Agents: A Preclinical Study” (Pharmaceutics, 2022)

Test system: SCID mice bearing twin HEK293-CCK2i4svR and wtHEK293 tumors
Assay: Biodistribution in SCID mice bearing twin HEK293-CCK2i4svR and wtHEK293 xenografts
Format: in vivo
How it was run: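 Uptake is expressed as %IA/g (mean ± SD, n = 4) from gamma counting of blood, organs and tumours collected at set times: 1, 4 and 24 h pi for ^67Ga, 4 and 24 h for ^111In (±gelofusine), 4–96 h for ^177Lu. Radioligands were given iv at 7–40 pmol to SCID mice bearing twin CCK2i4svR-transfected and wild-type HEK293 xenografts.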

CC(C)(C)C(=O)CN1C(=O)[C@H](NC(=O)Nc2cccc(C(=O)NCCOCCOCCOCCNC(=O)[C@H](CCC(=O)O)NC(=O)CCC(C(=O)O)N3CCN(CC(=O)[O-])CCN(CC(=O)[O-])CCN(CC(=O)[O-])CC3)c2)CN(C2CCCCC2)c2ccccc21.[177Lu+3] (stereo in doubt) [[^177Lu]Lu-GAS3]
Tumor to kidney ratio (96 pi): 13.8 | Biodistribution, Blood (4 h pi): 3.19 ± 0.44 %IA/g | Biodistribution, CCK2i4svR(+) Tumor (4 h pi): 20.88 ± 1.20 %IA/g | Biodistribution, CCK2i4svR(-) Tumor (4 h pi): 1.14 ± 0.50 %IA/g | Biodistribution, Femur (4 h pi): 0.60 ± 0.07 %IA/g | Biodistribution, Heart (4 h pi): 0.94 ± 0.21 %IA/g | Biodistribution, Intestines (4 h pi): 1.85 ± 0.18 %IA/g | Biodistribution, Kidneys (4 h pi): 8.86 ± 0.67 %IA/g | Biodistribution, Liver (4 h pi): 2.73 ± 0.31 %IA/g | Biodistribution, Lungs (4 h pi): 1.94 ± 0.21 %IA/g | Biodistribution, Muscle (4 h pi): 0.31 ± 0.04 %IA/g | Biodistribution, Pancreas (4 h pi): 1.00 ± 0.13 %IA/g | Biodistribution, Spleen (4 h pi): 1.19 ± 0.12 %IA/g | Biodistribution, Stomach (4 h pi): 0.64 ± 0.07 %IA/g | Tumor to kidney ratio (4 h pi): 2.4 | Biodistribution, Blood (24 h pi): 0.07 ± 0.01 %IA/g | Biodistribution, CCK2i4svR(+) Tumor (24 h pi): 5.38 ± 0.77 %IA/g | Biodistribution, CCK2i4svR(-) Tumor (24 h pi): 0.37 ± 0.12 %IA/g | Biodistribution, Femur (24 h pi): 0.11 ± 0.02 %IA/g | Biodistribution, Heart (24 h pi): 0.08 ± 0.02 %IA/g | Biodistribution, Intestines (24 h pi): 0.17 ± 0.04 %IA/g | Biodistribution, Kidneys (24 h pi): 1.42 ± 0.29 %IA/g | Biodistribution, Liver (24 h pi): 0.51 ± 0.05 %IA/g | Biodistribution, Lungs (24 h pi): 0.26 ± 0.02 %IA/g | Biodistribution, Muscle (24 h pi): 0.03 ± 0.01 %IA/g | Biodistribution, Pancreas (24 h pi): 0.07 ± 0.01 %IA/g | Biodistribution, Spleen (24 h pi): 0.45 ± 0.05 %IA/g | Biodistribution, Stomach (24 h pi): 0.11 ± 0.01 %IA/g | Tumor to kidney ratio (24 h pi): 3.8 | Biodistribution, Blood (48 h pi): 0.05 ± 0.01 %IA/g | Biodistribution, CCK2i4svR(+) Tumor (48 h pi): 3.39 ± 0.23 %IA/g | Biodistribution, CCK2i4svR(-) Tumor (48 h pi): 0.25 ± 0.14 %IA/g | Biodistribution, Femur (48 h pi): 0.14 ± 0.04 %IA/g | Biodistribution, Heart (48 h pi): 0.08 ± 0.01 %IA/g | Biodistribution, Intestines (48 h pi): 0.07 ± 0.01 %IA/g | Biodistribution, Kidneys (48 h pi): 0.47 ± 0.07 %IA/g | Biodistribution, Liver (48 h pi): 0.35 ± 0.09 %IA/g | Biodistribution, Lungs (48 h pi): 0.18 ± 0.03 %IA/g | Biodistribution, Muscle (48 h pi): 0.04 ± 0.01 %IA/g | Biodistribution, Pancreas (48 h pi): 0.08 ± 0.04 %IA/g | Biodistribution, Spleen (48 h pi): 0.43 ± 0.10 %IA/g | Biodistribution, Stomach (48 h pi): 0.08 ± 0.01 %IA/g | Biodistribution, Blood (72 h pi): 0.04 ± 0.00 %IA/g | Biodistribution, CCK2i4svR(+) Tumor (72 h pi): 1.99 ± 0.31 %IA/g | Biodistribution, CCK2i4svR(-) Tumor (72 h pi): 0.13 ± 0.03 %IA/g | Biodistribution, Femur (72 h pi): 0.06 ± 0.00 %IA/g | Biodistribution, Heart (72 h pi): 0.04 ± 0.01 %IA/g | Biodistribution, Intestines (72 h pi): 0.04 ± 0.01 %IA/g | Biodistribution, Kidneys (72 h pi): 0.17 ± 0.04 %IA/g | Biodistribution, Liver (72 h pi): 0.32 ± 0.02 %IA/g | Biodistribution, Lungs (72 h pi): 0.15 ± 0.01 %IA/g | Biodistribution, Muscle (72 h pi): 0.03 ± 0.01 %IA/g | Biodistribution, Pancreas (72 h pi): 0.03 ± 0.01 %IA/g | Biodistribution, Spleen (72 h pi): 0.44 ± 0.07 %IA/g | Biodistribution, Stomach (72 h pi): 0.06 ± 0.02 %IA/g | Biodistribution, Blood (96 h pi): 0.04 ± 0.00 %IA/g | Biodistribution, CCK2i4svR(+) Tumor (96 h pi): 1.52 ± 0.43 %IA/g | Biodistribution, CCK2i4svR(-) Tumor (96 h pi): 0.00 ± 0.04 %IA/g | Biodistribution, Femur (96 h pi): 0.06 ± 0.00 %IA/g | Biodistribution, Heart (96 h pi): 0.03 ± 0.01 %IA/g | Biodistribution, Intestines (96 h pi): 0.03 ± 0.01 %IA/g | Biodistribution, Kidneys (96 h pi): 0.11 ± 0.03 %IA/g | Biodistribution, Liver (96 h pi): 0.25 ± 0.02 %IA/g | Biodistribution, Lungs (96 h pi): 0.14 ± 0.01 %IA/g | Biodistribution, Muscle (96 h pi): 0.01 ± 0.00 %IA/g | Biodistribution, Pancreas (96 h pi): 0.02 ± 0.00 %IA/g | Biodistribution, Spleen (96 h pi): 0.39 ± 0.02 %IA/g | Biodistribution, Stomach (96 h pi): 0.04 ± 0.00 %IA/g | Background clearance / excretion route (mouse, in vivo): rapid background clearance predominantly via the kidneys
